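Assay format: 96-well plates, 48-hour exposure. Here, GI50 denotes the concentration required for 50% inhibition of growth. TGI marks complete inhibition of growth.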
What was measured:
Test in all cases: NCI anticancer screen, dose series, 48 h; in the data active = GI50 below about 0.43 µM; inactive = the rest
SF-268 CNS = system: SF-268 CNS
SK-MEL-5 melanoma = system: SK-MEL-5 melanoma
SNB-19 CNS = system: SNB-19 CNS
MALME-3M melanoma = system: MALME-3M melanoma
COLO 205 colon = system: COLO 205 colon
NCI-H23 lung = system: NCI-H23 lung
EKVX NSCLC = system: EKVX NSCLC
NCI-H226 lung = system: NCI-H226 lung
OVCAR-3 ovarian = system: OVCAR-3 ovarian
MOLT-4 leukemia = system: MOLT-4 leukemia
CAKI-1 renal = system: CAKI-1 renal
SK-OV-3 ovarian = system: SK-OV-3 ovarian
A498 renal = system: A498 renal
OVCAR-4 ovarian = system: OVCAR-4 ovarian
HOP-92 NSCLC = system: HOP-92 NSCLC
SNB-75 CNS = system: SNB-75 CNS
MCF7 breast = system: MCF7 breast
MDA-MB-435 = system: MDA-MB-435
SR leukemia = system: SR leukemia
LOX IMVI melanoma = system: LOX IMVI melanoma
ACHN renal = system: ACHN renal
RXF 393 renal = system: RXF 393 renal
M14 melanoma = system: M14 melanoma
SW-620 colon = system: SW-620 colon
HT29 colon = system: HT29 colon
SK-MEL-28 melanoma = system: SK-MEL-28 melanoma
HCT-116 colon = system: HCT-116 colon
CCRF-CEM leukemia = system: CCRF-CEM leukemia
HOP-62 NSCLC = system: HOP-62 NSCLC
A549 NSCLC = system: A549 NSCLC
NCI/ADR-RES ovarian = system: NCI/ADR-RES ovarian
HCC-2998 colon = system: HCC-2998 colon
SN12C renal = system: SN12C renal
T-47D breast = system: T-47D breast
U251 CNS = system: U251 CNS
BT-549 breast = system: BT-549 breast
SF-295 CNS = system: SF-295 CNS
K-562 leukemia = system: K-562 leukemia
SF-539 CNS = system: SF-539 CNS
UO-31 renal = system: UO-31 renal
KM12 colon = system: KM12 colon
MDA-MB-231 breast = system: MDA-MB-231 breast
786-0 renal = system: 786-0 renal
OVCAR-5 ovarian = system: OVCAR-5 ovarian
OVCAR-8 ovarian = system: OVCAR-8 ovarian
NCI-H460 lung = system: NCI-H460 lung
NCI-H522 lung = system: NCI-H522 lung
UACC-62 melanoma = system: UACC-62 melanoma
RPMI-8226 leukemia = system: RPMI-8226 leukemia
HS 578T breast = system: HS 578T breast
HL-60(TB) leukemia = system: HL-60(TB) leukemia
PC-3 prostate = system: PC-3 prostate
DU-145 prostate = system: DU-145 prostate
HCT-15 colon = system: HCT-15 colon
IGROV1 ovarian = system: IGROV1 ovarian
SK-MEL-2 melanoma = system: SK-MEL-2 melanoma
TK-10 renal = system: TK-10 renal
UACC-257 melanoma = system: UACC-257 melanoma

Cc1c([C@H](C(Cl)Cl)[C@H](O)[C@H]2C[C@H](C)C(=O)O2)ccc2c1C(=O)[C@H]1[C@H]2C[C@@H](Br)[C@@]23O[C@@H](CO[C@H]2O)CC13C (some centres not stated)
3.97 µM: TGI (SK-MEL-5 melanoma)
> 15.2 µM: TGI (MDA-MB-231 breast)
11 µM: TGI (NCI/ADR-RES ovarian)
> 45.3 µM: TGI (HOP-92 NSCLC)
> 50 µM: TGI (SF-268 CNS) | TGI (SNB-19 CNS) | TGI (MALME-3M melanoma) | TGI (EKVX NSCLC) | TGI (NCI-H226 lung) | TGI (MOLT-4 leukemia) | TGI (OVCAR-4 ovarian) | TGI (SNB-75 CNS) | TGI (MCF7 breast) | TGI (SR leukemia) | TGI (LOX IMVI melanoma) | TGI (ACHN renal) | TGI (SW-620 colon) | TGI (HT29 colon) | TGI (SK-MEL-28 melanoma) | TGI (CCRF-CEM leukemia) | TGI (HOP-62 NSCLC) | TGI (A549 NSCLC) | TGI (SN12C renal) | TGI (T-47D breast) | TGI (U251 CNS) | TGI (K-562 leukemia) | TGI (UO-31 renal) | TGI (OVCAR-5 ovarian) | TGI (OVCAR-8 ovarian) | TGI (NCI-H460 lung) | TGI (UACC-62 melanoma) | TGI (RPMI-8226 leukemia) | TGI (HL-60(TB) leukemia) | TGI (PC-3 prostate) | TGI (HCT-15 colon) | TGI (TK-10 renal)
5.07 µM: TGI (HCT-116 colon)
active: GI50 (SK-MEL-5 melanoma) 0.186 µM | GI50 (SNB-19 CNS) 0.38 µM | GI50 (MALME-3M melanoma) 0.275 µM | GI50 (COLO 205 colon) 0.213 µM | GI50 (NCI-H23 lung) 0.295 µM | GI50 (OVCAR-3 ovarian) 0.181 µM | GI50 (SK-OV-3 ovarian) 0.292 µM | GI50 (A498 renal) 0.304 µM | GI50 (MCF7 breast) 0.172 µM | GI50 (MDA-MB-435) 0.136 µM | GI50 (SR leukemia) 0.153 µM | GI50 (M14 melanoma) 0.207 µM | GI50 (SW-620 colon) 0.309 µM | GI50 (HT29 colon) 0.179 µM | GI50 (HCT-116 colon) 0.206 µM | GI50 (CCRF-CEM leukemia) 0.33 µM | GI50 (HCC-2998 colon) 0.215 µM | GI50 (T-47D breast) 0.258 µM | GI50 (U251 CNS) 0.262 µM | GI50 (SF-295 CNS) 0.22 µM | GI50 (K-562 leukemia) 0.217 µM | GI50 (SF-539 CNS) 0.304 µM | GI50 (KM12 colon) 0.26 µM | GI50 (OVCAR-5 ovarian) 0.314 µM | GI50 (NCI-H460 lung) 0.187 µM | GI50 (NCI-H522 lung) 0.183 µM | GI50 (UACC-62 melanoma) 0.324 µM | GI50 (RPMI-8226 leukemia) 0.24 µM | GI50 (HL-60(TB) leukemia) 0.112 µM | GI50 (PC-3 prostate) 0.33 µM | GI50 (DU-145 prostate) 0.157 µM | GI50 (HCT-15 colon) 0.373 µM | GI50 (SK-MEL-2 melanoma) 0.403 µM
> 11.1 µM: TGI (A498 renal)
> 29.5 µM: TGI (CAKI-1 renal)
21.9 µM: TGI (786-0 renal)
> 36.3 µM: TGI (BT-549 breast)
1.69 µM: TGI (NCI-H522 lung)
0.425 µM: TGI (MDA-MB-435)
1.12 µM: TGI (HCC-2998 colon)
> 22.2 µM: TGI (SK-MEL-2 melanoma)
2.05 µM: TGI (DU-145 prostate)
> 29.6 µM: TGI (IGROV1 ovarian)
1.09 µM: TGI (COLO 205 colon)
2.79 µM: TGI (SF-539 CNS)
1.18 µM: TGI (M14 melanoma)
inactive: GI50 (SF-268 CNS) 0.586 µM | GI50 (EKVX NSCLC) 0.695 µM | GI50 (NCI-H226 lung) > 12.7 µM | GI50 (MOLT-4 leukemia) 1.12 µM | GI50 (CAKI-1 renal) 0.798 µM | GI50 (OVCAR-4 ovarian) 1.37 µM | GI50 (HOP-92 NSCLC) 0.636 µM | GI50 (SNB-75 CNS) 0.454 µM | GI50 (LOX IMVI melanoma) 0.602 µM | GI50 (ACHN renal) 2.26 µM | GI50 (RXF 393 renal) 0.467 µM | GI50 (HOP-62 NSCLC) 0.571 µM | GI50 (A549 NSCLC) 0.435 µM | GI50 (NCI/ADR-RES ovarian) 2.17 µM | GI50 (SN12C renal) 0.881 µM | GI50 (BT-549 breast) 1.01 µM | GI50 (UO-31 renal) 8.89 µM | GI50 (MDA-MB-231 breast) 0.561 µM | GI50 (786-0 renal) 0.481 µM | GI50 (OVCAR-8 ovarian) 0.449 µM | GI50 (HS 578T breast) 0.708 µM | GI50 (IGROV1 ovarian) 0.845 µM | GI50 (TK-10 renal) 1.68 µM
2.53 µM: TGI (SF-295 CNS)
4.07 µM: TGI (SK-OV-3 ovarian)
> 16.6 µM: TGI (KM12 colon)
> 39.5 µM: TGI (HS 578T breast)
> 15.3 µM: TGI (NCI-H23 lung)

COC(=O)C1C(O)C(C)C(=O)C(C)/C=C\C=C(C)C(=O)Nc2c(C)c(OC(C)=O)c3c(c2O)C(=O)C(C)=C2OCOC(=C23)C(C)=CC(C)(O)C(O)C(C)C1O (configuration not stated)
44.2 µM: TGI (UACC-62 melanoma)
61.2 µM: TGI (A549 NSCLC)
86.1 µM: TGI (SK-MEL-2 melanoma)
70 µM: TGI (HT29 colon)
54.2 µM: TGI (CCRF-CEM leukemia)
28.2 µM: TGI (DU-145 prostate)
35 µM: TGI (NCI-H23 lung)
63.9 µM: TGI (HCT-116 colon)
93.5 µM: TGI (NCI-H460 lung)
45.6 µM: TGI (HCT-15 colon)
49.4 µM: TGI (K-562 leukemia)
49.3 µM: TGI (COLO 205 colon)
60.3 µM: TGI (SK-MEL-28 melanoma)
53.2 µM: TGI (HCC-2998 colon)
27.6 µM: TGI (SK-MEL-5 melanoma)
48.4 µM: TGI (HL-60(TB) leukemia)
32.9 µM: TGI (UACC-257 melanoma)
87 µM: TGI (SR leukemia)
90.6 µM: TGI (MCF7 breast)
57.8 µM: TGI (LOX IMVI melanoma)
49.8 µM: TGI (MALME-3M melanoma)
> 100 µM: TGI (SF-268 CNS) | TGI (SNB-19 CNS) | TGI (EKVX NSCLC) | TGI (NCI-H226 lung) | TGI (OVCAR-3 ovarian) | TGI (MOLT-4 leukemia) | TGI (CAKI-1 renal) | TGI (SK-OV-3 ovarian) | TGI (HOP-92 NSCLC) | TGI (SNB-75 CNS) | TGI (MDA-MB-435) | TGI (ACHN renal) | TGI (RXF 393 renal) | TGI (SW-620 colon) | TGI (HOP-62 NSCLC) | TGI (NCI/ADR-RES ovarian) | TGI (SN12C renal) | TGI (T-47D breast) | TGI (U251 CNS) | TGI (BT-549 breast) | TGI (SF-295 CNS) | TGI (SF-539 CNS) | TGI (UO-31 renal) | TGI (KM12 colon) | TGI (MDA-MB-231 breast) | TGI (786-0 renal) | TGI (OVCAR-5 ovarian) | TGI (OVCAR-8 ovarian) | TGI (NCI-H522 lung) | TGI (RPMI-8226 leukemia) | TGI (HS 578T breast) | TGI (PC-3 prostate)
65.9 µM: TGI (M14 melanoma)
82.2 µM: TGI (A498 renal)
58.3 µM: TGI (IGROV1 ovarian)

Source: PubChem BioAssay (NCI)
